Assay results reported in patent US20040029774A1, “Composition and methods for the treatment of musculoskeletal disorders and collagen and elastin deficiencies” (priority 2002, published 2004).

Key:
[1] = Solubility of rejuvenating ingredients in acidified deionized water mimicking the stomach
Method: In order to determine the amount of rejuvenating-nutrient that may be completely dissolved in water under conditions similar to that of stomach, the following study was executed: Deionized water was heated to 98° F.-99° F. to mimic the temperature of the human body. Adjustment of pH of the water to 2.7-2.9 was accomplished using hydrochloric acid to effect acidic conditions of the human stomach. […] Water/joints products were placed in a heated water bath with continuous agitation. Solubility of various joints products was compared at 30 minutes, one hour and two hours.
The following data reflect the percentage of product solubilized compared to added concentration at 0 minutes: […]

[2] = cited from earlier work

N[C@H]1C(O)O[C@H](CO)[C@@H](O)[C@@H]1O (some centres unmarked) [GLUCOSAMINE, Glucosamine]
% SOLUBILITY 2 HRS. ([1]; 2 h, pH 2.7): 30%

CS(C)(=O)=O [MSM, Methyl-Sulfonyl-Methane]
% SOLUBILITY 1 HR. ([1]; 1 h, pH 2.7): 20%
% SOLUBILITY 2 HRS. ([1]; 2 h, pH 2.7): 30%

N[C@H]1C(O)O[C@H](CO)[C@@H](O)[C@@H]1O.O=S(=O)(O)O (some centres unmarked) [glucosamine sulfate]
Clinical improvement of symptoms, persistence ([2]; after discontinuation of oral administration): up to four weeks
Clinical improvement of symptoms, onset ([2]; after oral administration): as early as one week

Chondroitin sulfate
% SOLUBILITY 30 MINS. ([1]; 10% concentration, water 98-99° F., pH 2.7-2.9): 100%
% SOLUBILITY 30 MINS. ([1]; 30% concentration, water 98-99° F., pH 2.7-2.9): 100%
% SOLUBILITY 30 MINS. ([1]; 50% concentration, water 98-99° F., pH 2.7-2.9): 100%
soluble at 50% concentration ([1]; 50% concentration, water 98-99° F., pH 2.7-2.9, time not given): 100%
% SOLUBILITY 30 MINS. ([1]; 70% concentration, water 98-99° F., pH 2.7-2.9): 20%
% SOLUBILITY 1 HR. ([1]; 70% concentration, water 98-99° F., pH 2.7-2.9, one hour): 20%
% SOLUBILITY 2 HRS. ([1]; 70% concentration, water 98-99° F., pH 2.7-2.9, two hours): 20%

Gelatin
% SOLUBILITY 1 HR. ([1]; pH 2.7): 10%
% SOLUBILITY 2 HRS. ([1]; pH 2.7): 15%
